From the supplement of paper PMC11451515

System: NOMO1
Assay: cell viability relative to DMSO control; higher = less cytotoxic
Conditions: 48 h
Outline: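 Viability was expressed as a per-plate percentage of DMSO wells, with cell-free wells as background. Leukemia cells (NOMO1 or SEM at 500 cells/well, P12-Ichikawa at 1000 cells/well) were adapted for at least four passages in each medium and seeded in 1536-well plates (5 μl). Library compounds in DMSO were pin-dosed over an 11-point threefold series from 47 μM to 0.79 nM, and CellTiter-Glo One luminescence was read after 48 h at 37°C.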

[1] = HPLM + 10% dialyzed FBS, 0.000781 µM
[2] = HPLM + 10% dialyzed FBS, 0.00234 µM
[3] = HPLM + 10% dialyzed FBS, 0.00702 µM
[4] = HPLM + 10% dialyzed FBS, 0.0211 µM
[5] = HPLM + 10% dialyzed FBS, 0.0632 µM
[6] = HPLM + 10% dialyzed FBS, 0.19 µM
[7] = HPLM + 10% dialyzed FBS, 0.569 µM
[8] = HPLM + 10% dialyzed FBS, 1.71 µM
[9] = HPLM + 10% dialyzed FBS, 5.12 µM
[10] = HPLM + 10% dialyzed FBS, 15.4 µM
[11] = HPLM + 10% dialyzed FBS, 46.1 µM
[12] = RPMI 5 mM glucose + 10% FBS, 0.000781 µM
[13] = RPMI 5 mM glucose + 10% FBS, 0.00234 µM
[14] = RPMI 5 mM glucose + 10% FBS, 0.00702 µM
[15] = RPMI 5 mM glucose + 10% FBS, 0.0211 µM
[16] = RPMI 5 mM glucose + 10% FBS, 0.0632 µM
[17] = RPMI 5 mM glucose + 10% FBS, 0.19 µM
[18] = RPMI 5 mM glucose + 10% FBS, 0.569 µM
[19] = RPMI 5 mM glucose + 10% FBS, 1.71 µM
[20] = RPMI 5 mM glucose + 10% FBS, 5.12 µM
[21] = RPMI 5 mM glucose + 10% FBS, 15.4 µM
[22] = RPMI 5 mM glucose + 10% FBS, 46.1 µM
[23] = RPMI 5 mM glucose + 10% dialyzed FBS, 0.000781 µM
[24] = RPMI 5 mM glucose + 10% dialyzed FBS, 0.00234 µM
[25] = RPMI 5 mM glucose + 10% dialyzed FBS, 0.00702 µM
[26] = RPMI 5 mM glucose + 10% dialyzed FBS, 0.0211 µM
[27] = RPMI 5 mM glucose + 10% dialyzed FBS, 0.0632 µM
[28] = RPMI 5 mM glucose + 10% dialyzed FBS, 0.19 µM
[29] = RPMI 5 mM glucose + 10% dialyzed FBS, 0.569 µM
[30] = RPMI 5 mM glucose + 10% dialyzed FBS, 1.71 µM
[31] = RPMI 5 mM glucose + 10% dialyzed FBS, 5.12 µM
[32] = RPMI 5 mM glucose + 10% dialyzed FBS, 15.4 µM
[33] = RPMI 5 mM glucose + 10% dialyzed FBS, 46.1 µM

| Compound | cell viability [1] [%] | cell viability [2] [%] | cell viability [3] [%] | cell viability [4] [%] | cell viability [5] [%] | cell viability [6] [%] | cell viability [7] [%] | cell viability [8] [%] | cell viability [9] [%] | cell viability [10] [%] | cell viability [11] [%] | cell viability [12] [%] | cell viability [13] [%] | cell viability [14] [%] | cell viability [15] [%] | cell viability [16] [%] | cell viability [17] [%] | cell viability [18] [%] | cell viability [19] [%] | cell viability [20] [%] | cell viability [21] [%] | cell viability [22] [%] | cell viability [23] [%] | cell viability [24] [%] | cell viability [25] [%] | cell viability [26] [%] | cell viability [27] [%] | cell viability [28] [%] | cell viability [29] [%] | cell viability [30] [%] | cell viability [31] [%] | cell viability [32] [%] | cell viability [33] [%] |
| --- | --- | --- | --- | --- | --- | --- | --- | --- | --- | --- | --- | --- | --- | --- | --- | --- | --- | --- | --- | --- | --- | --- | --- | --- | --- | --- | --- | --- | --- | --- | --- | --- | --- |
| C[C@@H]1CN(Cc2ccc(F)cc2)[C@@H](C)CN1C(=O)c1cc2c(C(=O)C(=O)N(C)C)cn(C)c2cc1Cl | 103 | 121 | 118 | 119 | 129 | 139 | 139 | 128 | 131 | 123 | 74.8 | 103 | 122 | 118 | 120 | 123 | 124 | 124 | 108 | 114 | 115 | 118 | 125 | 117 | 115 | 118 | 128 | 127 | 124 | 132 | 119 | 127 | 111 |
| NC(=O)Nc1sc(-c2ccc(F)cc2)cc1C(N)=O | 108 | 112 | 117 | 111 | 121 | 102 | 94.5 | 99.8 | 83.8 | 60.2 | 55.2 | 117 | 99.7 | 115 | 96 | 113 | 110 | 96.7 | 92.4 | 95.9 | 78 | 50.5 | 101 | 111 | 111 | 100 | 103 | 107 | 104 | 79.4 | 75.6 | 62 | 54.1 |
| O=C1CCC[C@@H]2[C@H]3CCCN4CCC[C@@H](CN12)[C@@H]34 | 59.1 | 68.9 | 78.1 | 87.1 | 87.2 | 94.8 | 38.3 | 93.2 | 26.6 | 25.3 | 13.6 | 79 | 92.2 | 84.6 | 86.8 | 85.2 | 90.9 | 55.3 | 85.2 | 17.2 | 13.9 | 7.48 | 66.1 | 79.6 | 90.2 | 82.9 | 86 | 93.6 | 69.3 | 77.8 | 19.1 | 18.6 | 10.8 |
| CC(NC(C)(C)C)C(=O)c1cccc(Cl)c1 (configuration not stated) |  |  |  |  |  |  |  |  |  |  |  | 112 | 124 | 115 | 120 | 133 | 127 | 113 | 115 | 119 | 128 | 113 |  |  |  |  |  |  |  |  |  |  |  |
| N[S+](=O)([O-])c1cc2c(cc1Cl)NC(C(Cl)Cl)N[S+]2(=O)[O-] (configuration not stated) | 96.9 | 107 | 113 | 117 | 111 | 135 | 136 | 130 | 121 | 125 | 124 | 105 | 96.1 | 105 | 107 | 102 | 103 | 123 | 108 | 102 | 125 | 110 | 112 | 114 | 109 | 118 | 112 | 118 | 120 | 126 | 125 | 141 | 120 |
| O=C([O-])C[C@H](O)C[C@H](O)/C=C/c1c(C2CC2)nc2ccccc2c1-c1ccc(F)cc1 | 101 | 104 | 130 | 120 | 125 | 116 | 112 | 132 | 109 | 87.7 | 12 | 108 | 116 | 122 | 114 | 111 | 112 | 116 | 134 | 109 | 97.8 | 23.7 | 114 | 109 | 110 | 122 | 116 | 119 | 129 | 115 | 101 | 86.4 | 22.9 |
| CC[N+](CC)(CC)CCOc1cccc(OCC[N+](CC)(CC)CC)c1OCC[N+](CC)(CC)CC |  |  |  |  |  |  |  |  |  |  |  | 106 | 118 | 108 | 118 | 136 | 110 | 98 | 98.9 | 104 | 112 | 75.7 | 116 | 118 | 115 | 109 | 127 | 114 | 99.4 | 100 | 111 | 101 | 91 |
| N#Cc1ccc(Oc2ccc3c(c2)COB3O)cc1 |  |  |  |  |  |  |  |  |  |  |  | 122 | 132 | 119 | 120 | 150 | 137 | 144 | 126 | 133 | 129 | 57.3 |  |  |  |  |  |  |  |  |  |  |  |
| CCc1cc(C(N)=S)ccn1 | 110 | 117 | 112 | 130 | 118 | 131 | 133 | 119 | 142 | 134 | 118 | 118 | 125 | 127 | 119 | 126 | 132 | 119 | 131 | 130 | 141 | 139 | 126 | 116 | 102 | 126 | 137 | 121 | 137 | 123 | 123 | 145 | 133 |
